According to patent US20230227546A1, “TYPE 2 CYTOKINES AS PREDICTORS OF DISEASE SEVERITY AND/OR AS T[…] FOR COVID-19” (priority 2020, published 2023):

System: COVID-19
Type: in vivo, human

Dupilumab: anti-human IL4Rα monoclonal antibody that blocks IL-13 and IL-4 signaling; sold as DUPIXENT
Deceased (number of patients) With Concurrent Dupilumab (31 patients): 0
Ventilated (number of patients) With Concurrent Dupilumab (31 patients): 0
Hospitalized (number of patients) With Concurrent Dupilumab (31 patients, values less than 20 suppressed): <20
Odds Ratio, Hospitalized (Dupilumab vs matched controls 1:5, conditional logistic regression): 0.64
rate of death (compared to matched controls): lower rate
rate of hospitalization (compared to matched controls): lower rate
rate of ventilation (compared to matched controls): lower rate
